According to patent publication US6555569B2, “Use of heteroaryl substituted N-(indole-2-carbonyl-) amides for treatment of infection” (Pfizer Inc., priority 2000, dated 2003):
≈ marks a conversion by molar mass, not a printed value.

Key:
Chlamydia pneumoniae [1] = experiment: Chlamydia pneumoniae infection of HEp-G2 cells, Protocol 2 (compound added 15 h after challenge); format: cell-based; conditions: for MIC: Chlamydia pneumoniae, Protocol 2, compound added 15 h after challenge of HEp-G2 cells
Method: (§1) Protocol 1 was performed in 96-well flat-bottom microtiter plates. Each well contained 100 μL of 10^6 HEp-G2 cells/ml in standard medium that had been incubated for 24 h at 37° C. in 5% CO2. Compound stocks were prepared in dimethylsulfoxide, diluted in two-fold serial dilutions, and added to each well as 10 μL aliquots. Each compound concentration was assayed in triplicate. Elementary bodies (chlamydial stock) were diluted to contain 2×10^4inclusion-forming units (ifu) per milliliter and 90 μL was added to each well. Infection was allowed to proceed for 72 h at 37° C. in 5% CO2, after which the cells were fixed and stained with genus-reactive anti-LPS antibody. The use of a fluorescein (FITC)-conjugated secondary antibody allowed the number of inclusion-containing cells to be identified via inverted fluorescent microscopy. The minimum inhibitory concentration (MIC) was defined as the lowest concentration of compound that inhibited the formation of inclusions. The minimal bactericidal concentration (MBC) was defined as the lowest concentration of compound that prevented the formation of inclusions after the compound had been removed by the addition of fresh medium and the cultures had been incubated for a further 48 h. Procedures for growth and preparation of C. pneumoniae and HEp-G2 cells are described in Kalayoglu, M. V., et al., J. Infect. Dis., 1999, 180:780-790. Methodology for detecting inclusions using an direct fluorescent antibody technique is found in Byrne, G. I., et al. J. Infect. Dis., 1993, 168:415-420.
Protocol 2 was nearly identical to protocol 1 except that compound was added 15 h after challenge of HEp-G2 cells with C. pneumoniae. This protocol helps distinguish compounds that interfere with latter stages of C. pneumoniae growth and replication.

Chlamydia pneumoniae [2] = experiment: Chlamydia pneumoniae infection of HEp-G2 cells, Protocol 1; format: cell-based; conditions: for MIC / MBC: Chlamydia pneumoniae, Protocol 1; for MIC: HEp-G2 cells, 72 h infection, lowest concentration that inhibited the formation of inclusions; for MBC: no inclusions after compound removed and further 48 h incubation; for activity against growth of C. pneumoniae in HEp-2 cells: as shown in Table 2
Method: as §1

C. pneumoniae = C. pneumoniae protocol that treats HEp-G2 cells with cycloheximide; format: cell-based, Chlamydia pneumoniae; conditions: cycloheximide 1 μg/mL

SMILES: O=C(N[C@@H](Cc1ccc(F)cc1)C(=O)N1CCC(O)CC1)c1cc2cc(Cl)ccc2[nH]1 [Compound 1]
- MIC (Chlamydia pneumoniae [1]): 12.5 µg/mL (≈ 28.2 µM)
- interfering with the latter stage of pneumoniae growth and replication (Chlamydia pneumoniae [1]; comparison of compound 1 with compound 2): superior to compound 2
- MIC (Chlamydia pneumoniae [2]): 12.5 µg/mL (≈ 28.2 µM)
- MBC (Chlamydia pneumoniae [2]): 25 µg/mL (≈ 56.3 µM)
- activity against growth of C. pneumoniae in HEp-2 cells (Chlamydia pneumoniae [2]): exhibited activity
- MICs in a protocol that treats HEp-G2 cells with cycloheximide (C. pneumoniae): did not differ

SMILES: O=C(N[C@@H](Cc1ccccc1)C(=O)N1CC(O)C1)c1cc2cc(Cl)ccc2[nH]1 [Compound 2]
- MIC (Chlamydia pneumoniae [1]): 50 µg/mL (≈ 126 µM)
- MIC (Chlamydia pneumoniae [2]): 25 µg/mL (≈ 62.8 µM)
- MBC (Chlamydia pneumoniae [2]): 25 µg/mL (≈ 62.8 µM)
- activity against growth of C. pneumoniae in HEp-2 cells (Chlamydia pneumoniae [2]): exhibited activity
- MICs in a protocol that treats HEp-G2 cells with cycloheximide (C. pneumoniae): did not differ
